Source: article PMC4491418, “Characterisation of Dermanyssus gallinae glutathione S-transferases and their potential as acaricide detoxification proteins” (Parasites & Vectors, 2015)

Tests used:
Type in all cases: biochemical
rDeg-GST-2 [1] = target: T1, rDeg-GST-2 (Dermanyssus gallinae, UniProt A0A0H4FKJ9); assay: inhibition of GSH-CDNB conjugation, A340nm; conditions: 100 µM; 1 mM CDNB, 2 mM GSH, pH 6.5 substrate buffer; 10 min preincubation at RT; mode not determined
T1 construct: full-length CDS (633 bp ORF, 210 aa) in pETSUMO; N-terminal His-tag and SUMO fusion kept; E. coli BL21-CodonPlus(DE3)-RIL; HisTrap purified
T1 sequence (A0A0H4FKJ9 1-210): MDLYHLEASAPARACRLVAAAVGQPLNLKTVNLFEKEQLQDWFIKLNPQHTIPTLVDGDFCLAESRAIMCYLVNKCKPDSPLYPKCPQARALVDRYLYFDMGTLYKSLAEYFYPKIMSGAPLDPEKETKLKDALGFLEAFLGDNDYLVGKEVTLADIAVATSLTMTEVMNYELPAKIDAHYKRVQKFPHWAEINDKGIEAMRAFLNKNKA
Excerpt: inhibition of GSH-CDNB conjugation, A340nm on rDeg-GST-2

rDeg-GST-1 [2] = target: T2, rDeg-GST-1 (Dermanyssus gallinae, UniProt A0A0H4FNI7); assay: inhibition of GSH-CDNB conjugation, A340nm; conditions: 100 µM; 1 mM CDNB, 2 mM GSH, pH 6.5 substrate buffer; 10 min preincubation at RT; mode not determined
T2 construct: full-length CDS (735 bp ORF, 244 aa) in pETSUMO; N-terminal His-tag and SUMO fusion kept; E. coli BL21-CodonPlus(DE3)-RIL; HisTrap purified
T2 sequence (A0A0H4FNI7 1-244): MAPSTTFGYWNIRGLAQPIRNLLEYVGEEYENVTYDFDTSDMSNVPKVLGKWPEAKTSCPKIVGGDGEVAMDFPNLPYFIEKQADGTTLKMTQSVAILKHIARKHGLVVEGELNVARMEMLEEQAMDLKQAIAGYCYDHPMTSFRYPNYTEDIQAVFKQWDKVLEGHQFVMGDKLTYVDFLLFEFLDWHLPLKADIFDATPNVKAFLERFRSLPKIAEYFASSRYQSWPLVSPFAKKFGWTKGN
Excerpt: inhibition of GSH-CDNB conjugation, A340nm on rDeg-GST-1

rDeg-GST-3 [3] = target: T3, rDeg-GST-3 (Dermanyssus gallinae, UniProt A0A0H4FPP8); assay: inhibition of GSH-CDNB conjugation, A340nm; conditions: 100 µM; 1 mM CDNB, 2 mM GSH, pH 6.5 substrate buffer; 10 min preincubation at RT; mode not determined
T3 construct: full-length CDS (669 bp ORF, 222 aa) in pETSUMO; N-terminal His-tag and SUMO fusion kept; E. coli BL21-CodonPlus(DE3)-RIL; HisTrap purified
T3 sequence (A0A0H4FPP8 1-222): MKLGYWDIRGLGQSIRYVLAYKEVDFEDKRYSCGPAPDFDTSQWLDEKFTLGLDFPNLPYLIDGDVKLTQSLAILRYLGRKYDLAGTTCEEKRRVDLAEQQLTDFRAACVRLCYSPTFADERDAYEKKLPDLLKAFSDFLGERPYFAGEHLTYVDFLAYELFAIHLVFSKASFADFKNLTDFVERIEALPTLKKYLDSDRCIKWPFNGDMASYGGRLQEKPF
Excerpt: inhibition of GSH-CDNB conjugation, A340nm on rDeg-GST-3

rDeg-GST-3 [4] = target: T3, rDeg-GST-3; assay: GSH-CDNB conjugation, A340nm; conditions: 0-1 mM CDNB, 2 mM GSH, pH 6.5
rDeg-GST-1 [5] = target: T2, rDeg-GST-1; assay: GSH-CDNB conjugation, A340nm; conditions: 0-1 mM CDNB, 2 mM GSH, pH 6.5
rDeg-GST-2 [6] = target: T1, rDeg-GST-2; assay: GSH-CDNB conjugation, A340nm; conditions: 0-1 mM CDNB, 2 mM GSH, pH 6.5

SMILES | % reduction in Deg-GST activity ± SEM / rDeg-GST-2 (1.5 μg GST/well) (rDeg-GST-2 [1]) [%] | % reduction in Deg-GST activity ± SEM / rDeg-GST-1 (0.3 μg GST/well) (rDeg-GST-1 [2]) [%] | % reduction in Deg-GST activity ± SEM / rDeg-GST-3 (1.5 μg GST/well) (rDeg-GST-3 [3]) [%] | GSH-CDNB conjugation, A340nm (rDeg-GST-3 [4]) | GSH-CDNB conjugation, A340nm (rDeg-GST-1 [5]) | GSH-CDNB conjugation, A340nm (rDeg-GST-2 [6])
CCOP(=S)(OCC)ON=C(C#N)c1ccccc1 [Phoxim] | 14.8 ± 1.5 | 56.38 ± 3.0 | 20.56 ± 2.5 |  |  | 
CC1(C)C(C=C(Cl)Cl)C1C(=O)OCc1cccc(Oc2ccccc2)c1 (stereo not shown) [Permethrin] |  | 35.39 ± 0.9 |  |  |  | 
O=[N+]([O-])c1ccc(Cl)c([N+](=O)[O-])c1 [1-chloro-2,4-dinitrobenzene] |  |  |  | All three rDeg-GSTs were enzymically-active molecules capable of catalyzing the conjugation of GSH to CDNB | All three rDeg-GSTs were enzymically-active molecules capable of catalyzing the conjugation of GSH to CDNB | All three rDeg-GSTs were enzymically-active molecules capable of catalyzing the conjugation of GSH to CDNB
